Source: US4818767A, “Quinate salts of antimalarial phenanthrenemethanol compounds” (SmithKline Beckman Corporation, priority 1983, dated 1989)
Structures can show the parent of a compound that is named as a salt.

Assays:
P. berghei = assay: antimalarial activity, standard in vivo test procedure against P. berghei in Swiss mice (ED50 on day 4 of treatment); settings: for ED50 Day 4 (mean values): effective dose which decreases the cell parasitemia by 50 percent on day 4 of treatment: Swiss mice infected i.p. with P. berghei, oral intubation in 0.2% methyl cellulose, 1, 4, 16 mg/kg/day × 4 days, 4 mice per group, 5760 min
Protocol: The antimalarial activity of 1-[1,3-dichloro-6-trifluoromethyl-9-phenanthryl]-3-di(n-butyl)aminopropanol quinate (Compound A) was established utilizing the following methodology. Test animals were infected by interperitoneal injection of 9×10^6 parasitized cells of P. berghei contained in 0.25 ml of 1:40 dilution in 0.9% aqueous sodium chloride with potassium citrate added of donor mouse blood which was infected with P. berghei one week earlier. Three days after injection, 3 groups of 4 mice (2 males and 2 females) were treated with Compound A at a dose level of 1, 4 and 16 mg/kg/day for 4 consecutive days. Similarly, a positive control of 3 groups of 4 mice (2 males and 2 females) were treated with halofantrine, as the hydrochloride salt, at a dose level of 1, 4 and 16 mg/kg/day for 4 consecutive days. The route of administration of Compound A and halofantrine was oral intubation of a suspension of each compound in 0.2% methyl cellulose at a constant volume of […]. A negative control group of 4 mice (2 males and 2 females) remained untreated. The results of the above test procedure expressed as an ED50 (the effective dose which decrease the cell parasitemia by 50 percent on day 4 of treatment) are shown below in Table I.

water solubility = type: physicochemical; settings: weight to weight basis
[1] = in vivo; cited from earlier work
[2] = system: Cambodian Buchanan strain of P. falciparum; settings: administered over a short period of time, minimum of two doses; cited from earlier work
[3] = system: Chesson strain of P. vivax; settings: administered over a short period of time, minimum of two doses; cited from earlier work
[4] = system: multi-drug resistant Vietnam Smith strain of P. falciparum; settings: administered over a short period of time, minimum of two doses; cited from earlier work

solubility (water solubility) | SMILES | times more effective, on a weight by weight basis, than halofantrine hydrochloride (ED50 on day 4) (P. berghei; P. berghei malaria in mice, compared to halofantrine hydrochloride) | ED50 Day 4 (mean values): effective dose which decreases the cell parasitemia by 50 percent on day 4 of treatment (P. berghei) | systemic bioavailability [1] | ED50 Day 4 (mean values): effective dose which decreases the cell parasitemia by 50 percent on day 4 of treatment (P. berghei; hydrochloride) | effectiveness against Cambodian Buchanan strain [2] | effectiveness against Chesson strain of P. vivax [3] | effectiveness against Vietnam Smith strain [4]
≤ 200 mg/mL | CCCCN(CCCC)CCC(O)c1cc2c(Cl)cc(Cl)cc2c2cc(C(F)(F)F)ccc12 (centres unmarked) [Compound A, 1-[1,3-dichloro-6-trifluoromethyl-9-phenanthryl]-3-di(n-butyl)aminopropanol quinate] | at least 6 times | ≤ 1 mg/kg | – | – | – | – | –
– | CCCCN(CCCC)CCC(O)c1cc2c(Cl)cc(Cl)cc2c2cc(C(F)(F)F)ccc12 (centres unmarked) [Halofantrine (HCl), 1-[1,3-dichloro-6-trifluoromethyl-9-phenanthryl]-3-di-(n-butyl)-aminopropanol hydrochloride] | – | – | problems with systemic bioavailability remained | 6 mg/kg | effective | effective | effective
